Laboratory results published in patent publication US20220024921A1, “1,3,4-OXADIAZOLONE COMPOUND AND PHARMACEUTICAL” (NIPPON SHINYAKU CO., LTD., priority 2018, published 2022).
Structures can show the parent of a compound that is named as a salt.

Columns and labels:
[1] = molecular target: PIM1 transgenic cells (Ba/F3) (Homo sapiens, UniProt P11309); assay: Proliferation inhibitory effect on PIM1 transgenic cells; type: cell-based, mouse; settings: proliferation inhibition, 72 hours, Cell Counting Kit-8, read-out: PIM1 IC50
Chain of PIM1 transgenic cells (Ba/F3) (P11309 whole entry, stated change not applied): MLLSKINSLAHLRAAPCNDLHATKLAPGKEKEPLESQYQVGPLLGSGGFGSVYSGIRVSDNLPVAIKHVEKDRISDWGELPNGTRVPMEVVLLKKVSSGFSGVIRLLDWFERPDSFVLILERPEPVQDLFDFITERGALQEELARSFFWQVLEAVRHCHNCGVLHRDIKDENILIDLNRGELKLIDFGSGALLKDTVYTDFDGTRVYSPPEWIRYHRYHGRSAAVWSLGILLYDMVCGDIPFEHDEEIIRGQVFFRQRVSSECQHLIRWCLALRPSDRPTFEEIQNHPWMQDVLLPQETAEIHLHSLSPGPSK
In short: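 Mouse Ba/F3 pro-B cells were retrovirally transduced with human PIM1 so that their proliferation depends on PIM1. Cells were treated with compound at 1–10000 nM final for 72 h, then read by CCK-8 (OD450−OD650). Inhibition was set against DMSO (0%) and no-cell blank (100%), and IC50 was obtained by two-parameter logistic regression.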

[2] = molecular target: T1, PIM1 serine/threonine kinase (Homo sapiens, UniProt P11309); assay: PIM1 serine/threonine kinase inhibitory effect; type: biochemical; settings: PIM1 serine/threonine kinase activity; ATP 40 μM; 30° C., 30 minutes
T1 construct: purchased Carna Bioscience, Inc
T1 sequence (P11309 whole entry): as the sequence (P11309 whole entry, stated change not applied) above
In short: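 Compounds were tested in duplicate from 0.01 to 10000 nM final against PIM1 kinase (0.15 μg/ml). The reaction ran for 30 minutes at 30° C with 40 μM ATP and 0.5 μM biotin-tagged substrate at pH 7.0. Phosphorylation was read by time-resolved FRET (OD665/OD620) after 1 h; IC50 by non-linear fit.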

SMILES	GI50 [1]	IC50 [2]
CC1CC(CNc2cc(-c3n[nH]c(=O)o3)ccc2C(F)(F)F)CCN1 (stereo not drawn) [Example 143, 5-[3-{[(2-methylpiperidin-4-yl)methyl]amino}-4-(trifluoromethyl)phenyl]-1,3,4-oxadiazol-2(3H)-one hydrochloride]	610 nM	14 nM
C[C@H](Nc1cc(-c2n[nH]c(=O)o2)ccc1C(F)(F)F)C1(C)CCNCC1 [Example 144, 5-[3-{[(1S)-1-(4-methylpiperidin-4-yl)ethyl]amino}-4-(trifluoromethyl)phenyl]-1,3,4-oxadiazol-2(3H)-one hydrochloride]	64 nM	2.9 nM
O=c1[nH]nc(-c2ccc(C(F)(F)F)c(N[C@H](C3CCNCC3)C(F)(F)F)c2)o1 [Example 146, 5-[4-(trifluoromethyl)-3-{[(1R)-2,2,2-trifluoro-1-(piperidin-4-yl)ethyl]amino}phenyl]-1,3,4-oxadiazol-2(3H)-one hydrochloride]	89 nM	12 nM
C[C@H](Nc1cc(-c2n[nH]c(=O)o2)ccc1Cl)[C@H]1CC[C@H](N)CC1 [Example 148, 5-[3-({(1S)-1-[(1r,4S)-4-aminocyclohexyl]ethyl}amino)-4-chlorophenyl]-1,3,4-oxadiazol-2(3H)-one hydrochloride]	45 nM	3.7 nM
C[C@H](Nc1cc(-c2n[nH]c(=O)o2)ccc1C(F)(F)F)C1CC2(CNC2)C1 [Example 149, 5-[3-{[(1S)-1-(2-azaspiro[3.3]heptan-6-yl)ethyl]amino}-4-(trifluoromethyl)phenyl]-1,3,4-oxadiazol-2(3H)-one trifluoroacetate]	380 nM	9.1 nM
C[C@H](Nc1cc(-c2n[nH]c(=O)o2)cc(F)c1C(F)(F)F)[C@@H]1C[C@H](N)C1(C)C [Example 150, 5-[3-({(1S)-1-[(1R,3S)-3-amino-2,2-dimethylcyclobutyl]ethyl}amino)-5-fluoro-4-(trifluoromethyl)phenyl]-1,3,4-oxadiazol-2(3H)-one hydrochloride]	9.2 nM	2 nM
O=c1[nH]nc(-c2ccc(C(F)(F)F)c(N[C@@H](CF)C3CCNCC3)c2)o1 [Example 152, 5-[3-{[(1R)-2-fluoro-1-(piperidin-4-yl)ethyl]amino}-4-(trifluoromethyl)phenyl]-1,3,4-oxadiazol-2(3H)-one hydrochloride]	57 nM	3.3 nM
C[C@H](Nc1cc(-c2n[nH]c(=O)o2)ccc1C(F)(F)F)[C@H]1C[C@@H](N)C1(C)C [Example 153, 5-[3-({(1S)-1-[(1S,3R)-3-amino-2,2-dimethylcyclobutyl]ethyl}amino)-4-(trifluoromethyl)phenyl]-1,3,4-oxadiazol-2(3H)-one hydrochloride]	40 nM	3.1 nM
C[C@H](Nc1cc(-c2n[nH]c(=O)o2)ccc1Br)[C@H]1CC[C@H](N)CC1 [Example 154, 5-[3-({(1S)-1-[(1r,4S)-4-aminocyclohexyl]ethyl}amino)-4-bromophenyl]-1,3,4-oxadiazol-2(3H)-one hydrochloride]	35 nM	2.4 nM
C[C@H](Nc1cc(-c2n[nH]c(=O)o2)ccc1C(F)(F)F)[C@@H]1[C@@H]2CC[C@H]1CNC2 [Example 155, 5-[3-({(1S)-1-[(1R,5S,8r)-3-azabicyclo[3.2.1]octan-8-yl]ethyl}amino)-4-(trifluoromethyl)phenyl]-1,3,4-oxadiazol-2(3H)-one hydrochloride]	92 nM	5.8 nM
C[C@H](Nc1cc(-c2n[nH]c(=O)o2)ccc1C(F)(F)F)[C@H]1[C@@H]2CC[C@H]1CNC2 [Example 156, 5-[3-({(1S)-1-[(1R,5S,8s)-3-azabicyclo[3.2.1]octan-8-yl]ethyl}amino)-4-(trifluoromethyl)phenyl]-1,3,4-oxadiazol-2(3H)-one hydrochloride]	160 nM	14 nM
C[C@H](Nc1cc(-c2n[nH]c(=O)o2)ccc1C(F)(F)F)C1CCCNCC1 (stereo partly drawn) [Example 157, 5-[3-{[(1S)-1-(azepan-4-yl)ethyl]amino}-4-(trifluoromethyl)phenyl]-1,3,4-oxadiazol-2(3H)-one hydrochloride]	65 nM	3.3 nM
C[C@H](Nc1cc(-c2n[nH]c(=O)o2)ccc1Cl)[C@@H]1C[C@H](N)C1(C)C [Example 158, 5-[3-({(1S)-1-[(1R,3S)-3-amino-2,2-dimethylcyclobutyl]ethyl}amino)-4-chlorophenyl]-1,3,4-oxadiazol-2(3H)-one hydrochloride]	37 nM	3.3 nM
C[C@H](Nc1cc(-c2n[nH]c(=O)o2)cc(F)c1C(F)(F)F)C1(F)CCNCC1 [Example 159, 5-[3-fluoro-5-{[(1S)-1-(4-fluoropiperidin-4-yl)ethyl]amino}-4-(trifluoromethyl)phenyl]-1,3,4-oxadiazol-2(3H)-one hydrochloride]	30 nM	2.8 nM
O=c1[nH]nc(-c2cc(F)c(C(F)(F)F)c(N[C@@H](CF)C3CCNCC3)c2)o1 [Example 160, 5-[3-fluoro-5-{[(1R)-2-fluoro-1-(piperidin-4-yl)ethyl]amino}-4-(trifluoromethyl)phenyl]-1,3,4-oxadiazol-2(3H)-one hydrochloride]	40 nM	1.2 nM
N[C@H]1CO[C@H](C2CC2c2cc(-c3n[nH]c(=O)o3)ccc2C(F)(F)F)OC1 (stereo partly drawn) [Example 161, 5-[3-{2-[(2r,5r)-5-amino-1,3-dioxan-2-yl]cyclopropyl}-4-(trifluoromethyl)phenyl]-1,3,4-oxadiazol-2(3H)-one hydrochloride]	1000 nM	29 nM
C[C@H](Nc1cc(-c2n[nH]c(=O)o2)ccc1C(F)(F)F)C1CCCNCCC1 [Example 162, 5-[3-{[(1S)-1-(azocan-5-yl)ethyl]amino}-4-(trifluoromethyl)phenyl]-1,3,4-oxadiazol-2(3H)-one hydrochloride]	140 nM	8.7 nM
O=c1[nH]nc(-c2cc(F)c(C(F)(F)F)c(N[C@@H](C(F)F)C3(F)CCNCC3)c2)o1 [Example 163, 5-[3-{[(1R)-2,2-difluoro-1-(4-fluoropiperidin-4-yl)ethyl]amino}-5-fluoro-4-(trifluoromethyl)phenyl]-1,3,4-oxadiazol-2(3H)-one hydrochloride]	24 nM	2 nM
C[C@H](Nc1cc(-c2n[nH]c(=O)o2)cc(F)c1C(F)(F)F)[C@H]1C[C@@H](N)C1(C)C [Example 164, 5-[3-({(1S)-1-[(1S,3R)-3-amino-2,2-dimethylcyclobutyl]ethyl}amino)-5-fluoro-4-(trifluoromethyl)phenyl]-1,3,4-oxadiazol-2(3H)-one hydrochloride]	25 nM	1.7 nM
C[C@H](Nc1cc(-c2n[nH]c(=O)o2)cc(F)c1C(F)(F)F)[C@H]1C[C@@H](N)C1 [Example 165, 5-[3-({(1S)-1-[(1s,3R)-3-aminocyclobutyl]ethyl}amino)-5-fluoro-4-(trifluoromethyl)phenyl]-1,3,4-oxadiazol-2(3H)-one]	25 nM	2.2 nM
CC1(C)[C@H](CNc2cc(-c3n[nH]c(=O)o3)ccc2C(F)(F)F)C[C@@H]1N [Example 166, 5-[3-({[(1R,3S)-3-amino-2,2-dimethylcyclobutyl]methyl}amino)-4-(trifluoromethyl)phenyl]-1,3,4-oxadiazol-2(3H)-one hydrochloride]	26 nM	2.3 nM
COc1c(F)cc(-c2n[nH]c(=O)o2)cc1N[C@@H](C)[C@H]1CC[C@H](N)CC1 [Example 167, 5-[3-({(1S)-1-[(1r,4S)-4-aminocyclohexyl]ethyl}amino)-5-fluoro-4-methoxyphenyl]-1,3,4-oxadiazol-2(3H)-one hydrochloride]	94 nM	3.1 nM
C[C@H](Nc1cc(-c2n[nH]c(=O)o2)ccc1Cl)[C@H]1C[C@@H](N)C1(C)C [Example 168, 5-[3-({(1S)-1-[(1S,3R)-3-amino-2,2-dimethylcyclobutyl]ethyl}amino)-4-chlorophenyl]-1,3,4-oxadiazol-2(3H)-one]	110 nM	10 nM
C[C@H](Nc1c(F)c(-c2n[nH]c(=O)o2)cc(F)c1Cl)[C@H]1CC[C@H](N)CC1 [Example 169, 5-[3-({(1S)-1-[(1r,4S)-4-aminocyclohexyl]ethyl}amino)-4-chloro-2,5-difluorophenyl]-1,3,4-oxadiazol-2(3H)-one hydrochloride]	310 nM	6.5 nM
C[C@H](Nc1cc(-c2n[nH]c(=O)o2)cc(F)c1OC(F)(F)F)[C@H]1CC[C@H](N)CC1 [Example 170, 5-[3-({(1S)-1-[(1r,4S)-4-aminocyclohexyl]ethyl}amino)-5-fluoro-4-(trifluoromethoxy)phenyl]-1,3,4-oxadiazol-2(3H)-one hydrochloride]	17 nM	1.8 nM
C[C@H](Nc1cc(-c2n[nH]c(=O)o2)cc(Br)c1Cl)[C@H]1CC[C@H](N)CC1 [Example 171, 5-[3-({(1S)-1-[(1r,4S)-4-aminocyclohexyl]ethyl}amino)-5-bromo-4-chlorophenyl]-1,3,4-oxadiazol-2(3H)-one dihydrochloride]	28 nM	2 nM
CCOc1c(F)cc(-c2n[nH]c(=O)o2)cc1N[C@@H](C)[C@H]1CC[C@H](N)CC1 [Example 173, 5-[3-({(1S)-1-[(1r,4S)-4-aminocyclohexyl]ethyl}amino)-4-ethoxy-5-fluorophenyl]-1,3,4-oxadiazol-2(3H)-one dihydrochloride]	250 nM	10 nM
